Consider 64 molecules from a melting point compilation (Tetko et al.; mined from patent text by program, amines drawn as free bases though some values may be those of a salt).

As for `NS(=O)(=O)Oc1cccc(Br)c1`, the melting point was in the range of 90 to 91.5 °C. The same measure for `C/C(=C(\Br)C=O)c1ccc2c(c1)C(C)(C)CCC2(C)C`: 115 to 117 °C; for `CC(=O)Nc1nc(-c2cc(Cl)nc(Cl)c2)cs1`: 301 °C. The same measure for `C[Si](C)(C)c1cccc(I)c1C(=O)NC1CC1`: 162 to 164 °C; for `CCN1C(=O)CCC(C)(C)c2cc(Nc3ncc(Cl)c(Nc4ccc(N5CCOCC5)cc4OC)n3)ccc21`: 255 °C.

Molecule `Cc1nn(C)cc1C(=O)NC1=C(c2ccc(Cl)cc2)CCC1` came in with a melting point of 103 to 105 °C. The same measure for `Cc1cccc2c1N(C(=O)OC(C)(C)C)CC(=O)N2`: 175 to 177 °C. The figure for `COC(=O)c1ccc2oc(-c3cc(C)ccc3OC(C)C)cc(=O)c2c1` is 149 to 151 °C. In turn, `OCCC1Cc2ccccc2CN1C(=S)Nc1cccnc1` (racemic) came in with a melting point of 174 °C. The same measure for `CNc1nc(-c2cccc(NC(=O)c3ccc(N(C)C)nc3)c2)c2cc(OC)c(OC)cc2n1`: 149 to 151 °C. The same measure for `O=C1c2cc([N+](=O)[O-])ccc2OCCN1CCO`: 151 °C. The figure for `N=C(N)N(CCCC(C=O)NC(=O)CNC(=O)CCc1ccccc1)C(=O)OCc1ccccc1` (centres undefined) is 69 to 74 °C; for `O=C(CCc1cnoc1-c1ccc(Cl)cc1)Nc1cccnc1` it is 197 to 198 °C.

Turning to `COc1ccc(C2=NN(C3CCCC3)C(=O)[C@H]3CC=CC[C@@H]23)cc1OC1CCCC1` (relative stereo), the melting point lay in the range of 144 to 145 °C. Consider `CN(CCCCN1C(=O)C=CC1=O)c1ccccc1`, for which the melting point lay within 66 to 67 °C. In turn, `CNC(=S)Nc1ccccc1CC(=O)OC` yielded a melting point of 99 to 100 °C. On to `CN(C)c1nonc1-c1nc2ccccc2n1CC(=O)c1ccc(Cl)cc1`, for which the melting point lay within 120 to 123 °C. As to `COc1ccc(-n2nc(N(C)C)cc2-c2ccc(OCCO)cc2)cc1`, the melting point is 120 to 122 °C. The same measure for `CC(=O)Oc1cccc(C(=O)N[C@@H](Cc2ccccc2)[C@H](O)C(=O)O)c1C`: 189 to 191 °C; for `Cc1c(-c2cccnc2)n(CCCCCCCC(=O)O)c2ccccc12`: 110 to 113 °C. Molecule `O=C(O)c1nn(-c2ccc(Cl)cc2Cl)c(-c2ccc(Cl)cc2)c1COCCO` showed a melting point of 182 °C. The same measure for `Cn1cc(C(=O)NCc2ccc(Cl)cc2)c(=O)c2sc(C=O)c(COCC[Si](C)(C)C)c21`: 174 to 176 °C; for `CCOC(=O)N(C)c1cccc(-c2ccc3nnc(C)n3n2)c1`: 146 to 149 °C; for `O=[N+]([O-])c1ccc(OCCOc2ccccc2)cc1`: 86 to 87 °C. The figure for `Clc1ccc(CN2CC=C(/C=C/c3ccc4[nH]ccc4c3)CC2)cc1` is 165 °C; for `CC(=O)C(C#N)c1cccc(Cl)c1` (centres undefined) it is 92 to 97 °C; for `CCn1nc2ccc(Cl)nn2c1=O` it is 150 to 152 °C. The figure for `COc1cc(-c2cnc3[nH]cc(C(=O)C(C)C)c3n2)cc(OC)c1OC` is 189 to 190 °C; for `CCc1nc(-c2cccc(C)c2)c(-c2ccnc(N)c2)s1` it is 144 to 146 °C. `COc1ccc(C(C)(C)C)cc1C=Cc1ccc(C=O)cc1` had a melting point of 82 to 83 °C. Molecule `COCCc1nc2c(N)nc3ccccc3c2n1CCCCC(=O)N1CCOCC1` gave a melting point of 128 to 129 °C. The figure for `COc1cc2c(=O)n(CCO)c3c4cc5c(cc4ncc3c2cc1OC)OCO5` is 285 to 286 °C.

Molecule `CS(=O)(=O)c1ccc(N2CCc3[nH]c4c(cnc5cc(Cl)ccc54)c3C2)cc1` came in with a melting point of over 250 °C. Molecule `CCc1cc(=O)c2nc(Cl)ccc2[nH]1` had a melting point of 269 to 270 °C.

For `CCOC(=O)c1cnoc1-c1ccc(Cl)cc1`, the melting point fell in the range of 58 to 60 °C. The same measure for `Nc1ccc(Cl)cc1C(=O)c1ccccc1O`: 51 to 52 °C; for `Cc1cc(Cl)ccc1-n1nc(O)c2[nH]c3cc(Cl)ccc3c(=O)c2c1=O`: 279 to 281 °C. Molecule `CCN1CCN(Cn2nc(-c3ccsc3)c3c2-c2ccccc2C3)CC1` yielded a melting point of 111 to 112 °C. Take `CC1(C)C(Cl)C(=O)C1CC(Cl)(Cl)Cl` (centres undefined): the melting point was 56 to 57 °C. Molecule `C=C1C(O)C(CO)OC1n1cc(C)c(=O)[nH]c1=O` (centres undefined) registered a melting point of 161 to 162 °C.

Turning to `Cn1c(C(F)(F)F)cc(=O)n(-c2c(F)cc(Cl)c3c2OC(C)(C)C3=O)c1=O`, the melting point was in the range of 160 to 162 °C. For `CN(C)CCOC(=O)c1ccc(CCN2CC=C(c3c[nH]c(-c4ccc(F)cc4)c3-c3ccncc3)CC2)cc1`, the melting point is 178 to 181 °C. The figure for `O=C(CC(=O)C(F)F)c1ccc(N2CCOCC2)cc1` is 102 to 103 °C; for `O=C(Nc1ccccc1)OCc1cn(-c2cc3cc(C(=O)O)c(=O)[nH]c3cc2[N+](=O)[O-])cn1` it is over 300 °C; for `O=[N+]([O-])c1cccc(/C=C/c2nc(C3CCCCCCC3)cs2)c1` it is 64 to 65 °C.

The molecule `CCCCCCC(C(=O)O)c1ccc(NC(=O)C2(O)c3ccccc3-c3ccccc32)cc1` (centres undefined) registered a melting point of 183 to 185 °C. The figure for `CCC(C)(N=NC(C)(CC)NC(=O)Nc1ccccc1)NC(=O)Nc1ccccc1` (centres undefined) is 118 to 120 °C; for `CC(=O)N1CC(NC(=O)Nc2cccc(C)c2)C(=O)N(CC(=O)c2ccccc2C)c2ccccc21` (centres undefined) it is 215 to 217 °C; for `N#Cc1n[nH]c2ccccc12` it is 138 to 140 °C. Consider `Fc1ccc(Cn2c(OC3CCN(Cc4ccccc4)CC3)nc3cncnc32)cc1`, for which the melting point was 117 °C. The same measure for `Cc1nnc2ccc(-c3ccc(C(F)(F)F)cc3)nn12`: 199 to 201 °C; for `CCc1nc2c(C)cc(C)nc2n1Cc1ccc(C(C(C)C)C(C)C(=O)O)cc1` (centres undefined): 84 to 90 °C. The figure for `CCOC(=O)C1Oc2cc(C(=O)c3ccnn3C)c(Cl)c(Cl)c2O1` (centres undefined) is 124 to 126 °C; for `NP(N)(=O)Oc1ccc2cccc(NS(=O)(=O)c3ccc([N+](=O)[O-])cc3)c2c1` it is 234 to 235 °C; for `COC(=O)C1CC(=O)NC(Cc2ccccc2)C1=O` (centres undefined) it is 146 to 148 °C. Regarding `O=C1OC(=O)c2cc3cccnc3c3cc([N+](=O)[O-])cc1c23`, the melting point lay within 268 to 269 °C. The molecule `O=C1N(Cc2nsc(Cl)n2)c2cccc(Cl)c2C12COc1cc3c(cc12)OCO3` (centres undefined) came in with a melting point of 174 to 176 °C. As to `FC(F)(F)c1ccccc1-c1ccnc2ncnn12`, the melting point fell in the range of 149 to 151 °C. Regarding `Cc1cc2nc(C)c(CCCl)c(=O)n2o1`, the melting point is 165 °C. The same measure for `CN(C)S(=O)(=O)c1cccc(-c2cc(-c3nc(-c4ccc(C(F)(F)F)cc4)cc(C(F)(F)F)n3)ccn2)c1`: 225 °C; for `O=C(O)c1cncc(OCc2ccccc2)n1`: 160 to 162 °C. The same measure for `O=C(NCc1noc(-c2ccc(CN3CCCCCC3)s2)n1)c1ccccc1`: 79 to 81 °C; for `Cc1ncc(C#N)c(Nc2cccc3[nH]ccc23)c1I`: 192 to 194 °C. The same measure for `COc1cc(C)nc(NC(=O)NS(=O)(=O)c2cccc3c2NC(C)C3)n1` (centres undefined): 175 to 177 °C.

One may read the melting point as the temperature, or range, at which the solid turns liquid.
